Test results: PubChem BioAssay (NCI)
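Test compounds were applied to cells in 96-well plates for 48 hours at 5 doses. TGI: concentration producing complete growth inhibition.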

Legend:
Assay in all cases: inhibition of tumour cell growth, NCI panel, 48 h
[1] = tested on: OVCAR-3 ovarian
[2] = tested on: HL-60(TB) leukemia
[3] = tested on: UACC-62 melanoma
[4] = tested on: NCI-H522 lung
[5] = tested on: MALME-3M melanoma
[6] = tested on: MDA-N
[7] = tested on: HOP-92 NSCLC
[8] = tested on: SW-620 colon
[9] = tested on: ACHN renal
[10] = tested on: 786-0 renal
[11] = tested on: PC-3 prostate
[12] = tested on: U251 CNS
[13] = tested on: K-562 leukemia
[14] = tested on: COLO 205 colon
[15] = tested on: EKVX NSCLC
[16] = tested on: SK-OV-3 ovarian
[17] = tested on: BT-549 breast
[18] = tested on: KM12 colon
[19] = tested on: HCT-15 colon
[20] = tested on: HOP-62 NSCLC
[21] = tested on: HS 578T breast
[22] = tested on: UO-31 renal
[23] = tested on: OVCAR-5 ovarian
[24] = tested on: M14 melanoma
[25] = tested on: DU-145 prostate
[26] = tested on: CAKI-1 renal
[27] = tested on: IGROV1 ovarian
[28] = tested on: OVCAR-8 ovarian
[29] = tested on: TK-10 renal
[30] = tested on: SF-268 CNS
[31] = tested on: SN12C renal
[32] = tested on: NCI-H460 lung
[33] = tested on: OVCAR-4 ovarian
[34] = tested on: T-47D breast
[35] = tested on: HCT-116 colon
[36] = tested on: MCF7 breast
[37] = tested on: HT29 colon
[38] = tested on: SK-MEL-28 melanoma
[39] = tested on: NCI-H23 lung
[40] = tested on: NCI-H226 lung
[41] = tested on: NCI/ADR-RES ovarian
[42] = tested on: RXF 393 renal
[43] = tested on: A549 NSCLC
[44] = tested on: SF-295 CNS
[45] = tested on: LOX IMVI melanoma
[46] = tested on: HCC-2998 colon
[47] = tested on: MDA-MB-435
[48] = tested on: SNB-75 CNS
[49] = tested on: MDA-MB-231 breast
[50] = tested on: SK-MEL-5 melanoma
[51] = tested on: SR leukemia
[52] = tested on: SNB-19 CNS
[53] = tested on: SF-539 CNS
[54] = tested on: RPMI-8226 leukemia
[55] = tested on: SK-MEL-2 melanoma
[56] = tested on: UACC-257 melanoma
[57] = tested on: CCRF-CEM leukemia
[58] = tested on: MOLT-4 leukemia
[59] = tested on: A498 renal

Measured: TGI

CCC(NC(C)c1ccccc1)C(=O)c1ccc(OCc2ccccc2)c(OCc2ccccc2)c1 (stereo not given)
not listed: [55] | [56] | [57] | [58] | [59]
> 100 µM: all other assays above

CC(C)=CCCC(C)(OC1OC(CO)C(O)C(O)C1O)C1CCC2(C)C1C(O)CC1C3(C)CCC(O)C(C)(C)C3C(OC3OC(CO)C(O)C(O)C3OC3OC(C)C(O)C(O)C3O)CC12C (stereo not given) (tested in a mixture with another compound)
> 7.5 µM: [32]
not listed: [5] | [42]
> 75 µM: all other assays above

[N-]=[N+]=Nc1ccccc1-c1ccccc1[N+](=O)[O-]
65.1 µM: [58]
99 µM: [32]
71.7 µM: [56]
92.1 µM: [41]
45.4 µM: [4]
not listed: [2] | [14] | [40] | [46] | [50] | [53] | [57]
> 100 µM: all other assays above

CC(C)[C@@H]1CC[C@@H](C)C[C@H]1OC(=O)c1c2n(c3ccccc13)C[C@H]1OC(C)(C)O[C@@H]21
73.8 µM: [15]
82.9 µM: [42]
24.1 µM: [51]
32.5 µM: [12]
48.9 µM: [39]
51.9 µM: [21]
87.3 µM: [26]
60.7 µM: [29]
not listed: [4] | [7] | [32] | [48] | [52] | [53] | [59]
> 100 µM: all other assays above
